Measurements published in patent US12377069B2, “Compounds, compositions, methods of using, and methods for preparing compounds” (UNIVERSITY OF LOUISVILLE RESEARCH FOUNDATION, INC., priority 2018, dated 2025).

How the values were obtained:
[1] = system: colon cancer cell line (SW480); experiment: Proliferation assay with 5FU; settings: Homo sapiens
Cyp1A1 [2] = experiment: Cyp1A1 enzyme activity in colon and liver microsomes of treated mice; format: in vivo, mouse; settings: 1 week; for Cyp1A1 activity in liver compared to oral UroA/UAS03: i.p. daily
Procedure: Measurements of Cyp1A1 enzyme activity (Ex vivo): Mice were treated with Vehicle or UroA or UAS03, BNF or FICZ daily for one week at indicated concentration either through oral or i.p. route. After one week, mice were euthanized and the colon and liver tissues were dissected. Microsomes from these tissues were prepared using the following procedure (SINGH et al., (2013) “Evaluation of memory enhancing clinically available standardized extract of Bacopa monniera on P-glycoprotein and cytochrome P450 3A in Sprague-Dawley rats” PloS one, Vol. 8, Article e72517). For hepatic microsomes, liver was first perfused with 0.9% sodium chloride solution and excised out. Adhering blood and saline was removed by blotting on tissue paper and tissue was homogenized in tissue homogenization buffer (50 mM Tris-HCl, pH 7.4 with 250 mM sucrose). Homogenate was centrifuged at 10,000×g for 30 minutes at 4° C. supernatant obtained was further centrifuged at 105,000×g for 60 minutes at 4° C. The pellet was washed with homogenization buffer and centrifuged again at 105,000×g for 60 minutes at 4° C. The pellet was suspended in homogenization buffer and used for protein and CYP assay. For intestinal microsome preparation, intestine was removed and washed with 0.9% sodium chloride. The intestine was longitudinally cut open to expose mucosal layer and mucosa was scrapped with help of glass slide. The scraped tissue was collected in homogenization buffer (50 mM Tris-HCl buffer containing glycerol (20% v/v), protease inhibitor (1%) and heparin (3 U/ml)). This suspended mucosa was homogenized and centrifuged at 10,000×g for 20 minutes at 4° C. Supernatant obtained was further centrifuged at 105,000×g for 60 minutes at 4° C. The pellet was washed with buffer and centrifuged again at 105,000×g for 60 minutes at 4° C. The pellet was suspended homogenization buffer and used for protein and CYP enzymes assays.
Ethoxyresorufin-O-deethylase (EROD) assay: The microsomal proteins (0.5 mg) were mixed with 200 μL Tris buffer (0.1 M, pH 7.4) containing ethoxyresorufin (0.01 mM). To start reaction, NADPH (0.1 mM) was added and incubated at 37° C. for 10 min. After 10 min, reaction was terminated by adding equal volume of acetonitrile and reaction mixture was centrifuged at 13000×g for 10 min at 4° C. Supernatant was used to determine resorufin by measuring fluorescence (Ex. 530 nm, Em. 580 nm). Pure resorufin (Sigma Aldrich) was used to generate standard curve.
P450-Glo Cyp1A1 luminiscence assay: The above microsomes (20 μg) were used for P450-Glo Cyp1A1 luminiscence assays as per manufacturer's instructions.

Cyp1A1 [3] = experiment: Cyp1A1 expression and enzyme activity in vitro (P450-Glo, EROD); format: cell-based, human; settings: HT29, 24 h; P450-Glo and EROD
Procedure: Measurment of Cyp1A1 enzyme activities in vitro. EROD assay: HT-29 cells (15,000 cells/well) treated with vehicle, UroA and UAS03 (24 hrs), were rinsed with HBSS buffer, and then fresh HBSS buffer was added along with 5 μM of 7-ethoxyresorufin. Cells were further incubated at 37° C. for 1 h. After the incubation time, fluorescence (Exc. 530 nm, Em. 580 nm) was measured and product (resorufin) formed was calculated from calibration standard and normalized with protein concentration.
P450-Glo Cyp1A1 luminiscence assay: HT29 cells (25,000 cells/well) were plated in 48 well plate. Cell were then treated with UroA (0.1, 1, 10, 25 and 50 μM) or UAS03 (0.1, 1, 10, 25 and 50 μM) or FICZ (0.1, 1, 10, 25 and 50 nM) for 24 hrs. After treatment, cells were washed to remove any residual drugs, and fresh medium containing Cyp1A1 substrate (as per protocol provided with kit Cat. #V8751; Promega) for 3 hr. After incubation, 25 μl of culture medium was removed from each well and transferred to a 96-well white opaque plate and 25 μl of luciferin detection reagent was added to initiate the luminescence reaction and plate was incubated at room temperature for 20 min. After incubation, luminescence was recorded in luminometer. The data reported as fold change over vehicle treatment.

[4] = system: mouse bone marrow derived macrophages (BMDMs); experiment: LPS-induced IL-6 and TNF-α in BMDM; format: cell-based; settings: LPS 50 ng/mL, six hours; compared UroA
Procedure: Measurements of IL-6 and TNF-α in BMDM: BMDM were plated in 96 (10,000 cells/well) and 12 wells (0.1×10^6 cells/well) plate for ELISA and RNA isolation. To evaluate the anti-inflammatory properties, BMDMs were stimulated with E. coli-derived lipopolysaccharides (LPS; 055:B5; Sigma) at 50 ng/mL concentration for six hours alone or in combination with UroA or UAS03 at indicated concentrations (0.01, 0.1, 1, 10, 25, 50 μM) in quadruplicates. For cytokine production via ELISA, the supernatant was collected and centrifuged at 10,000×g for 10 min at 4° C. to pellet down any cell and cytokines were quantified using IL-6 and TNF-α specific ELISA kit (Biolegend) following manufacturer's instruction.
Screening for anti-inflammatory activities: Mouse bone marrow derived macrophages (BMDM) were plated in 96 wells plate for ELISA. To evaluate the anti-inflammatory properties, BMDMs were stimulated with E. coli-derived lipopolysaccharides (LPS; 055:B5; Sigma) at 50 ng/mL concentration for six hours alone or in combination with compounds at indicated concentrations in quadruplicates. For cytokine production via ELISA, the supernatant was collected and centrifuged at 12,000 rpm for 10 min at 4° C. to pellet down any cell and cytokines were quantified using IL-6 and TNF-α specific ELISA kit (Biolegend) following manufacturer's instruction. LPS induced IL-6 or TNF-α considered as 100%.

AhR = AhR reporter (XRE-luciferase) assay; format: cell-based, human; settings: 6 h, over vehicle
Procedure: AhR Reporter assay: AhR-reported assay was performed using AhR Reporter Assay system (Indio Biosciences). The AhR Reporter cells (expressing luciferase under AhR promoter) as well as positive control MeBio (AhR ligand) compound were provided in the kit. The cells were treated with Vehicle or UroA or UAS03 or ellagic acid or MeBio for 6 hr and luminoscence was measured according to manufacture's instructions.

[5] = SW480, read-out: cell viability
[6] = i.p., UroA/UAS03 5 mg/kg/day, FICZ 1 μg/mouse/day

O=c1[nH]cc(F)c(=O)[nH]1 [5FU, 5-Fluoro-1H,3H-pyrimidine-2,4-dione, reference compound]
viability at 3.12 µM [1, 5]: 90% | viability at 25 µM [1, 5]: 63% | inhibition at 100 µM ([1]; SW480, read-out: maximum inhibition of cancer cell growth): ≤ 60%

O=c1cc(-c2ccccc2)oc2ccc3ccccc3c12 [BNF, beta-naphthoflavone, reference compound]
Cyp1A1 activity in liver compared to oral UroA/UAS03 (Cyp1A1 [2]): more Cyp1A1 activity in liver

O=Cc1c2c(cc3c1=Nc1ccccc1-3)=Nc1ccccc1-2 [FICZ, 6-Formylindolo[3,2-b]carbazole, reference compound]
Cyp1A1 enzyme activity in colon epithelial cells (Cyp1A1 [3]): increased Cyp1A1 activity even at nano molar concentrations | Cyp1A1 activity in liver compared to oral UroA/UAS03 (Cyp1A1 [2]): more Cyp1A1 activity in liver | Cyp1A1 activity increase in colons (Cyp1A1 [2]; [6]): ~5 fold | Cyp1A1 enzyme activity induction in liver (Cyp1A1 [2]; [6]): ~30 fold

O=C1C(=O)c2cc(O)ccc2-c2ccc(O)cc21 [PKL4]
anti-inflammatory activities (LPS-induced IL-6 and TNF-α), analogue screening [4]: effective anti-inflammatory compounds

COc1ccc2c(c1)C(=O)C(=O)c1cc(OC)ccc1-2 [PKL 3]
anti-inflammatory activities (LPS-induced IL-6 and TNF-α), analogue screening [4]: effective anti-inflammatory compounds

O=C1/C(=N/C23CC4CC(CC(C4)C2)C3)c2cc(O)ccc2-c2ccc(O)cc21 [PKL 17]
anti-inflammatory activities (LPS-induced IL-6 and TNF-α), analogue screening [4]: effective anti-inflammatory compounds

Clc1cc2c(cc1Cl)Oc1cc(Cl)c(Cl)cc1O2 [TCDD, 2,3,7,8-tetrachlorodibenzo-p-dioxin, reference compound]
Cyp1A1 enzyme activity in colon epithelial cells (Cyp1A1 [3]): increased Cyp1A1 activity even at nano molar concentrations

MeBio
induction of luciferase activity (AhR activation) (AhR): ~15 fold
